The values below come from ChEMBL document CHEMBL3627622, “Exploration of labeling by near infrared dyes of the polyproline linker for bivalent-type CXCR4 ligands” (Bioorg Med Chem, 2015).

This test addresses C-X-C chemokine receptor type 4 (Homo sapiens, UniProt P61073). The experiment in a line: Displacement of fluorescently-labeled-TZ14011 from CXCR4 in human Jurkat cells incubated for 30 mins by fluorescence analysis. It counts as cell-based.

Sequence of C-X-C chemokine receptor type 4 (P61073 whole entry): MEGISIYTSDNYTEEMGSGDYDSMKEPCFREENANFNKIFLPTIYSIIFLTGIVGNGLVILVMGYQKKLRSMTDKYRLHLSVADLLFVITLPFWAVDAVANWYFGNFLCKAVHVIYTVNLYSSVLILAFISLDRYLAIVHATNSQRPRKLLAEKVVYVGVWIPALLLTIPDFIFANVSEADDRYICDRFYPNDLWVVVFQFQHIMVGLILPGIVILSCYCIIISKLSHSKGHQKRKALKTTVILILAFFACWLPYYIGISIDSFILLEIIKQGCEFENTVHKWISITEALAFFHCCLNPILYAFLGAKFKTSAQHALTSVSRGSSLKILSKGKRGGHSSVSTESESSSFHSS

`CC(=O)N[C@@H](CCCCNC(=O)CSC[C@H]1NC(=O)[C@H](Cc2ccc3ccccc3c2)NC(=O)[C@H](CCCNC(=N)N)NC(=O)[C@H](CCCNC(=N)N)NC(=O)[C@@H](Cc2ccc(O)cc2)NC1=O)C(=O)N1CCC[C@H]1C(=O)N1CCC[C@H]1C(=O)N1CCC[C@H]1C(=O)N1CCC[C@H]1C(=O)N1CCC[C@H]1C(=O)N1CCC[C@H]1C(=O)N1CCC[C@H]1C(=O)N1CCC[C@H]1C(=O)N1CCC[C@H]1C(=O)N1CCC[C@H]1C(=O)N1CCC[C@H]1C(=O)N1CCC[C@H]1C(=O)N1CCC[C@H]1C(=O)N1CCC[C@H]1C(=O)N1CCC[C@H]1C(=O)N1CCC[C@H]1C(=O)N1CCC[C@H]1C(=O)N1CCC[C@H]1C(=O)N[C@@H](CCCCNC(=O)CS[C@H]1NC(=O)[C@H](Cc2ccc3ccccc3c2)NC(=O)[C@H](CCCNC(=N)N)NC(=O)[C@H](CCCNC(=N)N)NC(=O)[C@@H](Cc2ccc(O)cc2)NC1=O)C(N)=O` yielded an IC50 of 44 nM.
The value for `[N-]=[N+]=NCCCCCC(=O)NCCCC(=O)N[C@@H](CCCCNC(=O)CSC[C@H]1NC(=O)[C@H](Cc2ccc3ccccc3c2)NC(=O)[C@H](CCCNC(=N)N)NC(=O)[C@H](CCCNC(=N)N)NC(=O)[C@@H](Cc2ccc(O)cc2)NC1=O)C(=O)N1CCC[C@H]1C(=O)N1CCC[C@H]1C(=O)N1CCC[C@H]1C(=O)N1CCC[C@H]1C(=O)N1CCC[C@H]1C(=O)N1CCC[C@H]1C(=O)N1CCC[C@H]1C(=O)N1CCC[C@H]1C(=O)N1CCC[C@H]1C(=O)N1CCC[C@H]1C(=O)N1CCC[C@H]1C(=O)N1CCC[C@H]1C(=O)N1CCC[C@H]1C(=O)N1CCC[C@H]1C(=O)N1CCC[C@H]1C(=O)N1CCC[C@H]1C(=O)N1CCC[C@H]1C(=O)N1CCC[C@H]1C(=O)N[C@@H](CCCCNC(=O)CS[C@@H]1NC(=O)[C@H](Cc2ccc3ccccc3c2)NC(=O)[C@H](CCCNC(=N)N)NC(=O)[C@H](CCCNC(=N)N)NC(=O)[C@@H](Cc2ccc(O)cc2)NC1=O)C(N)=O` was 86 nM.

One may read the IC50 as the concentration that gives 50% inhibition. Lower therefore signals higher potency.
